The values below come from ChEMBL document CHEMBL1129469, “Nonpeptide angiotensin II receptor antagonists: the next generation in antihypertensive therapy” (J Med Chem, 1996).

Substitutions are numbered along the chain they refer to.

The test system of data set [1] is Rattus norvegicus. Description: Compound at an oral dose of 3 mg/Kg was tested for the inhibition of Ang-II induced pressor responses in conscious rats. The data set is classed as functional.
Data set [2] is filed under the species Rattus norvegicus. Description: Effective dose required for lowering blood pressure in renal hypertensive rats (RHR). The data set is classed as functional.
The target of data set [3] is T1, Angiotensin II receptor (AT-1) type-1 (Rattus norvegicus, UniProt P29089+P25095).
T1 sequence (P29089 whole entry): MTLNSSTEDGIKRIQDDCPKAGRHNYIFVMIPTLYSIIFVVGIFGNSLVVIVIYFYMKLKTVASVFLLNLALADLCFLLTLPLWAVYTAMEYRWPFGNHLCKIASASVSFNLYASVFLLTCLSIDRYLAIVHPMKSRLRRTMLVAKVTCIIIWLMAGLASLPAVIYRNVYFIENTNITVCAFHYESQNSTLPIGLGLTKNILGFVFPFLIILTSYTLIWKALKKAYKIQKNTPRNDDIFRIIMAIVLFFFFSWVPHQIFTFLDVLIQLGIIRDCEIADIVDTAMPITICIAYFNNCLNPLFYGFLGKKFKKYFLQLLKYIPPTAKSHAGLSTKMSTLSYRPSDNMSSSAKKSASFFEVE
T1 sequence (P25095 whole entry): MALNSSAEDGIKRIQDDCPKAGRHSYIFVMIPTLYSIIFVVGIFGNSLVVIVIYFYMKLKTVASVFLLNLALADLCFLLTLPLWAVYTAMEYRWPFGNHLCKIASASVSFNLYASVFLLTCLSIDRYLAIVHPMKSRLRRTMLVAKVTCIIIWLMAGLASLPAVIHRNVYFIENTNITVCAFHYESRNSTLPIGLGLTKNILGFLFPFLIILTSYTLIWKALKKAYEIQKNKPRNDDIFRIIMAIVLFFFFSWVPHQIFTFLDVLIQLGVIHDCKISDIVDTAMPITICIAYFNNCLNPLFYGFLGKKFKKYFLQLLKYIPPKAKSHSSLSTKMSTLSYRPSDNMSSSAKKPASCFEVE
Description: In vitro antagonistic potency against Angiotensin II receptor, type 1 in rat liver using [125I]-Sar1-Ile8-Ang II as radioligand. Type of data set: functional, tissue-based.

The species entered for the next data set is Oryctolagus cuniculus. Description: Compound was tested for its antagonistic activity against angiotensin II-induced contractions in rabbit aorta. The data set is classed as functional.
Data set [4] concerns Rattus norvegicus. Description: Oral effective dose required for inhibition of pressor response in conscious rats. Type of data set: functional.
The target in data set [5] is T2, Type-1 angiotensin II receptor (Cavia porcellus, UniProt Q9WV26).
T2 sequence (Q9WV26 whole entry): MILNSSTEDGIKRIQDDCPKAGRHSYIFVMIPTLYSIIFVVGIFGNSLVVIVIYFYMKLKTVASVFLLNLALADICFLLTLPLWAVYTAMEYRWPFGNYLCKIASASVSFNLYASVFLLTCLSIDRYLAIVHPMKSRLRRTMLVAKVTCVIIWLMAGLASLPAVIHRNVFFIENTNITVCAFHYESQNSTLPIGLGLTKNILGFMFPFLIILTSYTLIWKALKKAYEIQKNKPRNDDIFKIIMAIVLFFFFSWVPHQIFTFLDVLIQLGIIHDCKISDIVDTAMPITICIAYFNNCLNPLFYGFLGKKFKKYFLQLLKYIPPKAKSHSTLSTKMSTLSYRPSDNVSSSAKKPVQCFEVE
Kind of data set: In vitro antagonistic potency against Angiotensin II receptor, type 1 in guinea pig adrenal membrane. Type of data set: functional, cell membranes.

The target in data set [6] is T3, Type-2 angiotensin II receptor (Homo sapiens, UniProt P50052).
T3 sequence (P50052 whole entry): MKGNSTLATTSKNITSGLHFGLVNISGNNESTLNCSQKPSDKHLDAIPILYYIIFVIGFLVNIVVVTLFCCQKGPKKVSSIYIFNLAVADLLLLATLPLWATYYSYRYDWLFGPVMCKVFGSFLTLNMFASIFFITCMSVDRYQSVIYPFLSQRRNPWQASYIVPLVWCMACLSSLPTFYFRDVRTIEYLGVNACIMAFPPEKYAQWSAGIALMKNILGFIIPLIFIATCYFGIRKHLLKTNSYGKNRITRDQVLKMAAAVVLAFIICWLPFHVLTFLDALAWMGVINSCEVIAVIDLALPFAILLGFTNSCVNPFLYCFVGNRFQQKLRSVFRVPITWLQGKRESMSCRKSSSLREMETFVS
Description: Ki value was evaluated against Angiotensin II receptor, type 2.

Data set [7] concerns the target T4, Type-1 angiotensin II receptor (Homo sapiens, UniProt P30556).
T4 sequence (P30556 whole entry): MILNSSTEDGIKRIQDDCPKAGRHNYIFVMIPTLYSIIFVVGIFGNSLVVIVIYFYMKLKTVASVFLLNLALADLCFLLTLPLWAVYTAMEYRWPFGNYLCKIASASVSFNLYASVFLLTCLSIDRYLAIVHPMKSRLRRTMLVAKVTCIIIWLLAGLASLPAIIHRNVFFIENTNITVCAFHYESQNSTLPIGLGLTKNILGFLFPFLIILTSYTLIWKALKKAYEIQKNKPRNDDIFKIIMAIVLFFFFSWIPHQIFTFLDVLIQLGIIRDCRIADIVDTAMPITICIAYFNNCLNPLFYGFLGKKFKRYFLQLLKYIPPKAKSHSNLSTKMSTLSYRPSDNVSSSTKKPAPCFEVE
Kind of data set: Ki value was evaluated against Angiotensin II receptor, type 1.

The test system of data set [8] is Rattus norvegicus. Description: Intravenous effective dose required for lowering blood pressure in renal hypertensive rats (RHR). The data set is classed as functional.
Data set [9] deals with T3, Type-2 angiotensin II receptor. Kind of data set: Inhibition of Angiotensin II receptor, type 2.
For data set [10], the target named is T4, Type-1 angiotensin II receptor. Description: Inhibition of Angiotensin II receptor, type 1.
The subject of data set [11] is Rattus norvegicus. Kind of data set: Percent inhibition was evaluated against Ang II pressor in rats at dose 3 mg/kg, by oral administration. Type of data set: functional.
The target of data set [12] is T1, Angiotensin II receptor (AT-1) type-1. Description: In vitro antagonistic potency against Angiotensin II receptor, type 1 in rat liver. The data set is classed as functional, tissue-based.
For data set [13], the species on record is Rattus norvegicus. Description: Oral effective dose required for lowering blood pressure in spontaneous hypertensive rats (SHR). The data set is classed as functional.
The species entered for data set [14] is Rattus norvegicus. Description: Oral effective dose required for lowering blood pressure in renal hypertensive rats (RHR). The data set is classed as functional.
The target of data set [15] is T5, Type-1 angiotensin II receptor (Oryctolagus cuniculus, UniProt P34976).
T5 sequence (P34976 whole entry): T4 sequence (P30556 whole entry) with I2M, V49A, I254V, I270V, R272H, R311K, T349S, A353V
Description: Inhibitory activity was evaluated against angiotensin II type 1 rabbit aorta. The data set is classed as tissue-based.

The test system of data set [16] is Rattus norvegicus. Description: Effective dose required for inhibition of Ang II-induced pressor response in conscious rats. The data set is classed as functional.
The test system of data set [17] is Rattus norvegicus. Kind of data set: Percent inhibition was evaluated to inhibit Ang II pressor response in conscious rats at oral dose 1 mg/kg. Type of data set: functional.
Data set [18] in a line: Oral Bioavailability was evaluated in cynomolgus monkeys by oral administration. The data set is classed as ADME, organism-based, Macaca fascicularis. To be noted: cynomolgus monkey, in vivo.
Data set [19] can be described thus: Oral Bioavailability was evaluated in dog by oral administration. Type of data set: ADME, organism-based, Canis lupus familiaris. The following applies: in vivo.
Data set [20] in a line: Oral bioavailability in rat. Type of data set: ADME, organism-based. To be noted: in vivo.
Data set [21] has as its target T1, Angiotensin II receptor (AT-1) type-1. Kind of data set: In vitro antagonistic potency against Angiotensin II receptor, type 1 in rat adrenal cortex. The data set is classed as functional, tissue-based.
Data set [22] concerns Rattus norvegicus. Kind of data set: Intravenous effective dose against Ang II-induced pressor responses in conscious rats. The data set is classed as functional.

As usually defined, the inhibition in vivo is the drop in the measured response relative to a control, in per cent. Low readings indicate a weak effect, high ones a strong effect. In the data set on Rattus norvegicus [1], `CCc1nc2c(C)cc(C)nc2n1Cc1ccc2c(c1)C(Cc1nnn[nH]1)c1ccccc1-2` (stereo unspecified) yielded an inhibition in vivo at 3 mg/kg of 73%.

Molecule `CCCCc1nc(Cl)c(CC(=O)OC)n1Cc1ccc(NC(=O)c2ccccc2C(=O)O)cc1` showed an ED30 in the data set filed under Rattus norvegicus [2] of 11 mg/kg.

What is called pKB is the negative decadic logarithm of the KB, by convention in mol/L. As to `CCc1nc(C2CC2)c(C(N)=O)n1Cc1ccc2oc(-c3ccccc3NS(=O)(=O)C(F)(F)F)c(Br)c2c1`, in data set [3], the “Log Ki” value is -9.3. Moreover, in the data set filed under Oryctolagus cuniculus, the pKB was determined as 9.

Usually ED50 stands for the dose at which the effect has come halfway, by size or by number of responders. Lower therefore signals greater potency. The molecule `CCCCc1nc(Cl)c(C(=O)OC(C)OC(=O)OCC)n1Cc1ccc(-c2ccccc2-c2nn[nH]n2)cc1` (stereo unspecified) gave an ED50 in the data set with Rattus norvegicus [4] of 0.5 mg/kg.

Broadly, the IC50 is the concentration that gives 50% inhibition. Read a high IC50 as weaker potency in that assay. As to `CCc1cc(OCc2ccc(-c3ccccc3-c3nnn[nH]3)cc2)c2ccccc2n1`, the IC50 in [5] was 30 nM.

By Ki is commonly meant a measure of affinity in units of concentration, obtained from inhibition or displacement. Lower therefore signals higher affinity. As for `CCCCc1nc2ccc(NC(=O)NC3CCCCC3)cc2n1Cc1ccc(-c2ccccc2C(=O)O)cc1`, the Ki in data set [6] came out at 480 nM; in [7] it was 29 nM. For the same molecule, the ED30 in the data set with Rattus norvegicus [8] was approximately 2 mg/kg.

In the case of `CCCCCN(Cc1ccc(-c2ccccc2-c2nn[nH]n2)cc1)C(=O)N1CCN(C(=O)N(c2ccccc2)c2ccccc2)[C@H](C(=O)O)C1`, the values for the IC50 in data set [9] and in data set [10] were 180 nM and 15 nM, respectively. The same molecule gave an inhibition in vivo at 3 mg/kg in the data set with Rattus norvegicus [11] of 80%.

Regarding `COc1c(OCc2ccc(-c3ccccc3-c3nn[nH]n3)cc2)cc(C)nc1C`, in [12], the “Log Ki” value was -8.7. For the same molecule, the results for the 50% effective dose (ED50) in the data set listed under Rattus norvegicus [13] and in the data set filed under Rattus norvegicus [14] were 0.48 mg/kg and 2.5 mg/kg, respectively.

For the molecule `CCc1nc2c(CC)cn(Cc3ccc(-c4ccccc4-c4nn[nH]n4)cc3)n2n1`, the IC50 in data set [15] was determined as 1.7 nM.

`CCc1cc2c(c(CC)n1)CCC(=O)N2Cc1ccc(-c2ccccc2-c2nnn[nH]2)cc1` displayed an IC50 in data set [5] of 3.8 nM. In the data set with Rattus norvegicus [16], this molecule came in with an ED50 of 0.19 mg/kg.

Regarding `CCCCc1nc2ccc(NC(=O)N(C)C(C)C)cc2c(=O)n1Cc1ccc(-c2ccccc2-c2nn[nH]n2)cc1`, the inhibition in vivo at 1 mg/kg in the data set with Rattus norvegicus [17] stood at 84%.

What is called bioavailability is dose-corrected exposure relative to a reference, in per cent. Regarding `CCCN(Cc1ccc(-c2ccccc2-c2nn[nH]n2)cc1)c1ncccc1C(=O)O`, the bioavailability in [18], in [19] and in data set [20] was more than 50% in each case. In addition, the Ki in [12] came to 0.76 nM.

What is called Kb is the affinity of an antagonist, worked out from how it opposes an agonist. High values mean a less potent antagonist, low ones a more potent antagonist. `CCCCc1nc(Cl)c(C(=O)O)n1Cc1cccc2c1ccn2-c1ccccc1-c1nn[nH]n1` came in with a Ki in [21] of 800 nM. Also, the Kb in the data set listed under Oryctolagus cuniculus is 0.068 nM. In the data set on Rattus norvegicus [22], this molecule came in with an ED50 of 0.22 µmol/kg.
